Values joined by “and” are separate entries in the source; they are usually repeats but may differ in a detail not shown here. Equal values may be shown once.
Experiments:
15-LO = molecular target: T1, 15-LO (Homo sapiens, UniProt P16050); experiment: 15-HETE formation in intact PMNL preparations, A23187 + 20 µM AA; type: cell-based; conditions: 15 min preincubation, A23187 2.5 µM + 20 µM AA, n.i. = no inhibition observed; for IC50: PMNL (20 µM AA) 15-HETE IC50, intact PMNL; for PMNL (20 µM AA) 15-HETE IC50: intact PMNL
T1 construct: endogenous in cells; host or cells: eosinophils in human PMNL preparations
T1 sequence (P16050 1-662): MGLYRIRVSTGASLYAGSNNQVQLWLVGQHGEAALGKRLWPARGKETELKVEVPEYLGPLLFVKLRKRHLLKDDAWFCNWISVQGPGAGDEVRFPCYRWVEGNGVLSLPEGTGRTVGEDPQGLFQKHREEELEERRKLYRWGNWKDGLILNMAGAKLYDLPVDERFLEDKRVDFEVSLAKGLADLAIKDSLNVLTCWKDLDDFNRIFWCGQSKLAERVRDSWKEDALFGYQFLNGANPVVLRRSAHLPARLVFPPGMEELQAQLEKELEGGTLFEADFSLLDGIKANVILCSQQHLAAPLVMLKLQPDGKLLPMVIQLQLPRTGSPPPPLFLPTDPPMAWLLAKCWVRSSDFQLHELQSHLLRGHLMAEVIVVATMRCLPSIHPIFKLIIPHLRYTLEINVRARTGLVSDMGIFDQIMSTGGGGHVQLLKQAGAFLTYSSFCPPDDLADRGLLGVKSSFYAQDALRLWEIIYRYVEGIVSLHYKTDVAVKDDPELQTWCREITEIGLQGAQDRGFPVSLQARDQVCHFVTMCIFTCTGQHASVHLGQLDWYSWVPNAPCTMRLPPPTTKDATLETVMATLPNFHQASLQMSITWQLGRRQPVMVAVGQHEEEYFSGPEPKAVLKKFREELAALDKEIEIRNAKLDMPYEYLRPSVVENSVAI
Procedure: (§1) Buffy coats from different donors of different blood types were commercially obtained from DRK Blutspendedienst Baden-Württemberg Institute Frankfurt. Donors have given their written consent. […] Following separation, the supernatant was transferred very gently to new 50-ml tubes containing lymphocyte separation medium (LSM) and centrifuged for 10 min at 800 ×g at RT with the centrifuge brake turned off. Afterwards, the supernatant was decanted carefully to discard the platelets and monocytes. The PMNL were washed with 1× PBS before the residual erythrocytes were lysed in two cycles: the cell pellet was resuspended with 10 ml H2O and vortexed for 45 s, and lysis was stopped with 40 ml 1 × PBS. After 10-min centrifugation at 200 ×g at RT, the cycle was repeated once. The supernatant was aspirated, the cell pellet resuspended in 5 ml PBS/glucose and initially separated PMNL preparations with different blood types were finally pooled to gain a sufficient number of cells. […] The enzyme was diluted in PBS/EDTA/ATP, transferred into 5-ml glass tubes, and stored on ice. […] The reaction was stopped by placing the glass tubes on ice. The supernatants were transferred to 1.5 ml reaction tubes and stored at −80°C before LC-MS (liquid chromatography and mass spectrometry) analysis of LTB4 and HETEs as described in 2.6 at the Institute of Pharmacology, Goethe University, University Hospital, Germany. The lipid mediators LTB4, hydroxyeicosatetraenoic acids, 5(S)-HETE, 12(S)-HETE, 15(S)-HETE and 20-HETE were analyzed using liquid chromatography tandem-mass spectroscopy (LC-MS/MS). The LC-MS/MS system consisted of a 5500 QTrap mass spectrometer (Sciex, Darmstadt, Germany), operating in negative ESI mode, an Agilent 1200 HPLC system (Agilent, Waldbronn, Germany) and an HTC Pal autosampler (Chromtech, Idstein, Germany). Sample extraction of LTB4 and HETEs were performed using liquid-liquid extraction: 200 µl of the sample were gently mixed with 20 µl of methanol and 20 µl of internal standard solution and extracted twice with 600 µl ethyl acetate. […] Working solutions of all analytes were prepared in methanol containing 0.1% BHT. The calibration standards were prepared by further dilution of the working standards. […] The residues were reconstituted in 50 µl of methanol:water:BHT (50:50:10^−4, v/v/v) prior to injection into the LC-MS/MS system. Chromatographic separation was achieved using a Gemini NX C18 column (150 mm × 2 mm ID, 5 µm, Phenomenex, Aschaffenburg, Germany) with a precolumn of the same material. A linear gradient was employed at a flow rate of 0.5 ml/min and a total run time of 17.5 min. Mobile phases were A water:ammonia (100:0.05, v/v) and B acetonitrile:ammonia (100:0.05, v/v). […] All data were acquired using Analyst software v1.6.2 and quantitation was performed by MultiQuant software v3.0 (both Sciex, Darmstadt, Germany) using the internal standard method (isotope-dilution mass spectrometry). Calibration curves were calculated by linear regression with 1/x.

5-LO = molecular target: T2, 5-LO (Homo sapiens, UniProt P09917); experiment: 5-LO product formation (LTB4, 5-HETE) in intact PMNL, A23187 + 20 µM AA; type: cell-based; conditions: 15 min preincubation, A23187 2.5 µM + 20 µM AA, n.i. = no inhibition observed; for PMNL (20 µM AA) 5-HETE IC50 / PMNL (20 µM AA) LTB4 IC50: intact PMNL
T2 construct: endogenous in cells; host or cells: human PMNL from buffy coats
T2 sequence (P09917 1-674): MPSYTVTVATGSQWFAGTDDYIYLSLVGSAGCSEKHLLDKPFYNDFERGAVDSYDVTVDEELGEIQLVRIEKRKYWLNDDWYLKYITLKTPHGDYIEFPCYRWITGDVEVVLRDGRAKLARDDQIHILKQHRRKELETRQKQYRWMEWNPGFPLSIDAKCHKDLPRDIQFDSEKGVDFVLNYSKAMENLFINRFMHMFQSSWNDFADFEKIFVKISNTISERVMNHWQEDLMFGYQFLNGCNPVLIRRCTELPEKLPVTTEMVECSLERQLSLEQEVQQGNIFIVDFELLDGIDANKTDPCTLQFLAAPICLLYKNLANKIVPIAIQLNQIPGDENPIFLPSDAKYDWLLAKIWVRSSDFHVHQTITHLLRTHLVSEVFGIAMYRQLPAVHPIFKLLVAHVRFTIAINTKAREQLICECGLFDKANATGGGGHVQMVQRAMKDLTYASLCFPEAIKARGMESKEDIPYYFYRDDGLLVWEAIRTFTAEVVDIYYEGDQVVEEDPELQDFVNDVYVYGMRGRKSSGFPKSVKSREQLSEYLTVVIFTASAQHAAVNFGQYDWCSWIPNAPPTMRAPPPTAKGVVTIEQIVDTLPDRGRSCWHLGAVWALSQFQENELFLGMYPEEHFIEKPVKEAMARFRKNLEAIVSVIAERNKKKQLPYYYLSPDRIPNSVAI
Procedure: as §1

[1] = PMNL (20 µM AA) 5-HETE IC50, intact PMNL
[2] = PMNL (20 µM AA) LTB4 IC50, intact PMNL

| Compound | IC50 (15-LO) | IC50 (5-LO; [1]) | IC50 (5-LO; [2]) | PMNL (20 µM AA) 15-HETE IC50 (15-LO) | PMNL (20 µM AA) 5-HETE IC50 (5-LO) | PMNL (20 µM AA) LTB4 IC50 (5-LO) |
| --- | --- | --- | --- | --- | --- | --- |
| CCCCCCCC=C(CCCCCCCCC(=O)O)[N+](=O)[O-] [18.10.10, 10-nitro-octadec-10-enoic acid] | 19.6 ± 1.1 µM | 6 ± 1.2 µM | 7 ± 1.1 µM | – | – | – |
| CCCCCCCCCCCCCC=C(CCC(=O)O)[N+](=O)[O-] [18.4.4, 4-nitro-octadec-4-enoic acid] | 7.7 ± 1.2 µM | 9.2 ± 1.2 µM | 10.6 ± 1.1 µM | – | – | – |
| CCCCCCCC/C=C\CCCCCCCC(=O)O [OA, oleic acid, reference compound] | – | – | – | not affected and n.i. | n.i. | n.i. |
| CCCCCCCCCCC=C(CCCCCC(=O)O)[N+](=O)[O-] [18.7.7, 7-nitro-octadec-7-enoic acid] | 7.6 ± 1.1 µM | 4.9 ± 1.1 µM | 4.3 ± 1.1 µM | – | – | – |
| CCCCCCC=C(CCCCCCCC(=O)O)[N+](=O)[O-] [16.9.9, 9-nitro-hexadec-9-enoic acid] | – | 10.8 ± 1.1 µM | 12 ± 1.1 µM | n.i. | – | – |
| CCCCCCCCCCCC(=CCCCCC(=O)O)[N+](=O)[O-] [18.6.7, 7-nitro-octadec-6-enoic acid] | 17.3 ± 1.1 µM | 11.2 ± 1.2 µM | 8.3 ± 1.1 µM | – | – | – |
| CCCCCCCCC=C(CCCCCCCC(=O)O)[N+](=O)[O-] [18.9.9, 9-nitro-octadec-9-enoic acid] | 17.6 µM and 20.4 µM | 5.9 µM and 6.1 µM | 4.8 ± 1.8 µM | – | – | – |
| CCCCCCC=C(CCCCCCCCCC(=O)O)[N+](=O)[O-] [18.11.11, 11-nitro-octadec-11-enoic acid] | 26 ± 1.3 µM | 5.7 ± 1.1 µM | 5.9 ± 1.1 µM | – | – | – |
| CCCCC=C(CCCCCCCC(=O)O)[N+](=O)[O-] [14.9.9, 9-nitro-tetradec-9-enoic acid] | – | – | – | n.i. | n.i. | n.i. |
| CCCCCCCCCCCCC=C(CCCC(=O)O)[N+](=O)[O-] [18.5.5, 5-nitro-octadec-5-enoic acid] | 8.9 ± 1.2 µM | 7.5 ± 1.1 µM | 9 ± 1.1 µM | – | – | – |
| CCC=C(CCCCCCCC(=O)O)[N+](=O)[O-] [12.9.9, 9-nitro-dodec-9-enoic acid] | – | – | – | n.i. | n.i. | n.i. |
| CCCCCCCCC(=CCCCCCCCC(=O)O)[N+](=O)[O-] [18.9.10, 10-nitro-octadec-9-enoic acid] | 20.5 ± 1.3 µM | 6.9 ± 1.1 µM | 5 ± 1.1 µM | – | – | – |
| CCCCCCCCCCCC=C(CCCCC(=O)O)[N+](=O)[O-] [18.6.6, 6-nitro-octadec-6-enoic acid] | 14.8 ± 1.1 µM | 9.1 ± 1.2 µM | 7.7 ± 1.1 µM | – | – | – |
| CCCCCCCCCC(=CCCCCCCC(=O)O)[N+](=O)[O-] [18.8.9, 9-nitro-octadec-8-enoic acid] | 23.4 ± 1.3 µM | 7.7 ± 1.2 µM | 5.7 ± 1.2 µM | – | – | – |
| CCCCCCCCCCC=C(CCCCCCCC(=O)O)[N+](=O)[O-] [20.9.9, 9-nitro-eicos-9-enoic acid] | 21.2 ± 1.1 µM | 4.7 ± 1.1 µM | 4.2 ± 1.1 µM | – | – | – |
| CCCCCCCCCC=C(CCCCCCC(=O)O)[N+](=O)[O-] [18.8.8, 8-nitro-octadec-8-enoic acid] | 16 ± 1.1 µM | 6.6 ± 1.1 µM | 7.9 ± 1.1 µM | – | – | – |

— PMC8637440, “Structural Modifications Yield Novel Insights Into the Intriguing Pharmacodynamic Potential of Anti-inflammatory Nitro-Fatty Acids” (Frontiers in Pharmacology, 2021)
